According to US12458630B2, “Combination therapy for cancer” (The Regents of the University of California, priority 2020, dated 2025):
“Also recorded” adds a separate entry of the source.

What was measured:
[1] = test system: MP-related proteins; test: Immunoblot of MP-related proteins in BxPC3 cells; type: cell-based, human; conditions: WT and IKKα KO BxPC3 cells, ML385 10 μM, 24 hrs
Protocol: (§1) Immunoblot and immunoprecipitation. Cells were harvested and lysed in RIPA buffer (50 mM Tris-HCl, pH 7.4, 150 mM NaCl, 1% Triton X-100, 1% Na deoxycholate, 0.1% SDS, 1 mM EDTA) supplemented with complete protease inhibitor cocktail. Proteins were resolved on SDS-polyacrylamide gels, and then transferred to a polyvinylidene difluoride membrane. After blocking with 5% (w/v) fat free milk, the membrane was stained with the corresponding primary antibodies followed by incubation with the appropriate secondary HRP-conjugated antibodies, and development with ECL. Immunoreactive bands were detected by automatic X-ray film processor or KwikQuant Imager.

[2] = test system: 1305 primary human PDAC cells; test: Cell viability assay (CCK-8); type: cell-based; conditions: IKKα^low 1305 cells, 3 days
Protocol: In some embodiments, cells were plated in 96-well plates coated with or without ECM at a density of 3000 cells (MIA PaCa-2, 1444, 1305, COLO 357/FG) or 1500 cells (KC6141) per well and incubated overnight prior to treatment. EIPA (10.5 μM), IPI549 (600 nM), MBQ-167 (500 nM), MRT68921 (600 nM) or erlotinib (2 μM, Sigma), ML385 (10 μM, Sigma), HCQ (10 μM or 80 μM) or their combinations were added to the wells for 24, 72 or 96 hrs. Next, 10 μL of CCK-8 was added to each well. The optical density was read at 450 nm using a microplate reader (FilterMax F5, Molecular Devices, USA) at day 0, 1, 2, 3, and 4. For glutamine-deprivation assays, cells in 96-well plates were rinsed briefly in PBS and incubated in the 0.2 mM glutamine. Glutamine-free DMEM medium was supplemented with 0.2 mM glutamine in the presence of 10% dialyzed FBS and 25 mM HEPES. For glucose-deprivation assays, cells in 96-well plates were rinsed briefly in PBS and incubated in the 0.5 mM glucose. Glucose-free DMEM medium was supplemented with 0.5 mM glucose in the presence of 10% dialyzed FBS and 25 mM HEPES. For some conditions, the medium was supplemented with a final concentration of 2% BSA (Fraction V, fatty-acid-, nuclease and protease-free, Calbiochem). For all experiments, media were replaced every 24 hrs. Viable cell counts were obtained using CCK-8 assay described as above.

[3] = test system: BxPC3 cells; test: TMR-DEX macropinosome uptake assay; type: cell-based, human; conditions: WT and IKKα KO BxPC3 cells (WT KRAS), ML385 10 μM, 24 hrs
Protocol: Cell imaging. […] Cells were cultured on coverslips and fixed in 4% PFA for 10 min at room temperature. After washing twice in PBS, cells were incubated in PBS containing 10% FBS to block nonspecific sites of antibody adsorption. The cells were then incubated with the appropriate primary antibodies (diluted 1:100) and secondary antibodies (diluted 1:500) in PBS containing 10% FBS with or without 0.1% saponin. For cell macropinosome visualization, 24 hrs after seeding, the cells were serum starved for 18 hrs. […] At the end of the incubation period, the cells were rinsed five times in cold PBS and immediately fixed in 4% PFA. For tissue macropinosome visualization^45, fresh pancreata were cut into pieces with an approximate 5-mm cuboidal shape. […]
Quantification and statistics. To quantify the number of LC3 puncta, a total of 30 cells were recorded and analyzed using the LAS X measurement program on the TCS SPE Leica. Macropinosomes were quantified by using the ‘Analyze Particles’ feature in ImageJ (National Institutes of Health). […]
In some embodiments, to quantify LC3 puncta or LC3-LAMP1 co-localization, a total of 30 cells were recorded and analyzed using the LAS X measurement program on the TCS SPE Leica. Macropinosomes were quantified by using the ‘Analyze Particles’ feature in Image J (National Institutes of Health). […]

[4] = test system: MIA PaCa-2 cells; test: Immunoblot of p62 and LC3 (autophagic degradation); type: cell-based, human; conditions: IKKα-deficient (KD) MIA PaCa-2 cells, normal or starvation medium 2 hrs, +/- CQ
Protocol: as §1, with “Autophagy Induction. […] For starvation, cells were incubated in starvation medium (20 mM HEPES pH 7.4, 140 mM NaCl, 1 mM CaC2, 1 mM MgCl2, and 1% BSA) for 1.5 or 2 hrs. For glucose starvation, cells were washed three times with PBS and incubated in glucose-free DMEM containing 10% dialyzed FBS for 4 hrs. Immunoblot” for “Immunoblot”

[5] = test system: COLO 357/FG cells; test: LC3 puncta and p62/LC3 immunoblot; type: cell-based, human; conditions: IKKα^low COLO 357/FG cells, normal or starvation medium 2 hrs, +/- CQ
Protocol: Autophagy Induction. […] For starvation, cells were incubated in starvation medium (20 mM HEPES pH 7.4, 140 mM NaCl, 1 mM CaC2, 1 mM MgCl2, and 1% BSA) for 1.5 or 2 hrs. For glucose starvation, cells were washed three times with PBS and incubated in glucose-free DMEM containing 10% dialyzed FBS for 4 hrs.
as §1
Data are presented as mean±SEM.

Cc1ccccc1C(=O)N1CCc2cc(-c3nc(NC(=O)Cc4ccc5c(c4)OCO5)sc3C)ccc21 [ML385]
MP-related protein expression increased by IKKα ablation [1]: blocked this effect
sensitivity to single agent (cell viability) [2]: very sensitive
TMR-DEX uptake increased by IKKα ablation [3]: blocked this effect

CCN(CC)CCCC(C)Nc1ccnc2cc(Cl)ccc12 (stereo not drawn) [CQ, chloroquine]
p62 and LC3-II levels [4]: did not increase p62 and LC3-II; also recorded: failed to increase p62 and LC3-II
LC3 puncta, LC3 lipidation and p62 on starvation [5]: not affected
LC3 puncta, LC3 lipidation and p62 on starvation ([5]; listed as chloroquine): no effect
